Laboratory results from US4868321A, “Isothiocyanate intermediates” (FMC Corporation, priority 1988, dated 1989).

Columns and labels:
Assay type in all cases: in vivo
[1] = system: Rice; assay: Postemergence Herbicidal Activity, Rice; conditions: Oryza sativa, post-emergence
Excerpt: (§1) The herbicidal data in the following Tables 3 and 4 was obtained in the manner described in PCT published application no. […] In those tables, the test compounds are identified by numbers which correspond to those in Table 1, "kg/ha" is kilograms per hectare, and "% C" is percent control.

[2] = system: Morningglory; assay: Postemergence Herbicidal Activity, Morningglory; conditions: Ipomoea, post-emergence
Excerpt: (§2) The herbicidal data in the following Tables 3 and 4 was obtained in the manner described in PCT published application no. WO 85/01939, previously mentioned, usually employing solutions of the herbicidal compound in 50/50 acetone/water mixtures. In those tables, the test compounds are identified by numbers which correspond to those in Table 1, "kg/ha" is kilograms per hectare, and "% C" is percent control.

[3] = system: Green Foxtail; assay: Preemergence Herbicidal Activity, Green Foxtail; conditions: Setaria viridis, pre-emergence
Excerpt: as §1

[4] = system: Rice; assay: Preemergence Herbicidal Activity, Rice; conditions: Oryza sativa, pre-emergence, 0.25 kg/ha
Excerpt: as §1

[5] = system: Wheat; assay: Postemergence Herbicidal Activity, Wheat; conditions: Triticum aestivum, post-emergence
Excerpt: as §1

[6] = system: Velvetleaf; assay: Preemergence Herbicidal Activity, Velvetleaf; conditions: Abutilon theophrasti, pre-emergence
Excerpt: as §2

[7] = system: Wheat; assay: Preemergence Herbicidal Activity, Wheat; conditions: Triticum aestivum, pre-emergence
Excerpt: as §1

[8] = system: Field Bindweed; assay: Postemergence Herbicidal Activity, Field Bindweed; conditions: post-emergence
Excerpt: as §2

[9] = system: Cotton; assay: Preemergence Herbicidal Activity, Cotton; conditions: Gossypium hirsutum, pre-emergence
Excerpt: as §2

[10] = system: Johnsongrass; assay: Postemergence Herbicidal Activity, Johnsongrass; conditions: Sorghum halepense, post-emergence
Excerpt: as §1

[11] = system: Soybean; assay: Postemergence Herbicidal Activity, Soybean; conditions: Glycine max, post-emergence
Excerpt: as §1

[12] = system: Morningglory; assay: Preemergence Herbicidal Activity, Morningglory; conditions: Ipomoea, pre-emergence
Excerpt: as §2

[13] = system: Soybean; assay: Preemergence Herbicidal Activity, Soybean; conditions: Glycine max, pre-emergence
Excerpt: as §1

[14] = system: Field Corn; assay: Postemergence Herbicidal Activity, Field Corn; conditions: Zea mays, post-emergence
Excerpt: as §1

[15] = system: Barnyardgrass; assay: Preemergence Herbicidal Activity, Barnyardgrass; conditions: Echinochloa crus-galli, pre-emergence
Excerpt: as §1

[16] = system: Barnyardgrass; assay: Postemergence Herbicidal Activity, Barnyardgrass; conditions: Echinochloa crus-galli, post-emergence
Excerpt: as §1

[17] = system: Velvetleaf; assay: Postemergence Herbicidal Activity, Velvetleaf; conditions: Abutilon theophrasti, post-emergence
Excerpt: as §2

[18] = system: Cotton; assay: Postemergence Herbicidal Activity, Cotton; conditions: Gossypium hirsutum, post-emergence
Excerpt: as §2

[19] = system: Johnsongrass; assay: Preemergence Herbicidal Activity, Johnsongrass; conditions: Sorghum halepense, pre-emergence
Excerpt: as §1

[20] = system: Field Corn; assay: Preemergence Herbicidal Activity, Field Corn; conditions: Zea mays, pre-emergence
Excerpt: as §1

[21] = system: Field Bindweed; assay: Preemergence Herbicidal Activity, Field Bindweed; conditions: pre-emergence
Excerpt: as §2

[22] = system: Green Foxtail; assay: Postemergence Herbicidal Activity, Green Foxtail; conditions: Setaria viridis, post-emergence
Excerpt: as §1

SMILES: CS(=O)(=O)Nc1cc(-n2nnn(CCCF)c2=O)c(F)cc1Cl [Compound 2, 1-[4-chloro-2-fluoro-5-(N--methylsulfonylamino)phenyl]-1,4-dihydro-4-(3-fluoropropyl)-5H--tetrazol-5-one]
- plant injury at 250 g/ha ([1]; 0.25 kg/ha): 50%
- pest or weed control at 250 g/ha ([2]; 0.25 kg/ha): 100%
- pest or weed control at 250 g/ha ([3]; 0.25 kg/ha): 40%
- plant injury at 250 g/ha [4]: 70%
- plant injury at 250 g/ha ([5]; 0.25 kg/ha): 20%
- pest or weed control at 250 g/ha ([6]; 0.25 kg/ha): 100%
- plant injury at 250 g/ha ([7]; 0.25 kg/ha): 10%
- pest or weed control at 250 g/ha ([8]; 0.25 kg/ha): 100%
- plant injury at 250 g/ha ([9]; 0.25 kg/ha): 95%
- pest or weed control at 250 g/ha ([10]; 0.25 kg/ha): 50%
- plant injury at 250 g/ha ([11]; 0.25 kg/ha): 50%
- pest or weed control at 250 g/ha ([12]; 0.25 kg/ha): 100%
- plant injury at 250 g/ha ([13]; 0.25 kg/ha): 20%
- plant injury at 250 g/ha ([14]; 0.25 kg/ha): 80%
- pest or weed control at 250 g/ha ([15]; 0.25 kg/ha): 60%
- pest or weed control at 250 g/ha ([16]; 0.25 kg/ha): 40%
- pest or weed control at 250 g/ha ([17]; 0.25 kg/ha): 100%
- plant injury at 250 g/ha ([18]; 0.25 kg/ha): 100%
- pest or weed control at 250 g/ha ([19]; 0.25 kg/ha): 40%
- plant injury at 250 g/ha ([20]; 0.25 kg/ha): 40%
- pest or weed control at 250 g/ha ([21]; 0.25 kg/ha): 100%
- pest or weed control at 250 g/ha ([22]; 0.25 kg/ha): 50%

SMILES: CS(=O)(=O)N(c1cc(-n2nnn(CCCF)c2=O)ccc1Cl)S(C)(=O)=O [Compound 6]
- plant injury at 8000 g/ha ([1]; 8.0 kg/ha): 30%
- pest or weed control at 8000 g/ha ([2]; 8.0 kg/ha): 100%
- pest or weed control at 8000 g/ha ([3]; 8.0 kg/ha): 30%
- plant injury at 8000 g/ha ([5]; 8.0 kg/ha): 20%
- pest or weed control at 8000 g/ha ([6]; 8.0 kg/ha): 95%
- plant injury at 8000 g/ha ([7]; 8.0 kg/ha): 0%
- pest or weed control at 8000 g/ha ([8]; 8.0 kg/ha): 70%
- plant injury at 8000 g/ha ([9]; 8.0 kg/ha): 70%
- pest or weed control at 8000 g/ha ([10]; 8.0 kg/ha): 20%
- plant injury at 8000 g/ha ([11]; 8.0 kg/ha): 50%
- pest or weed control at 8000 g/ha ([12]; 8.0 kg/ha): 60%
- plant injury at 8000 g/ha ([13]; 8.0 kg/ha): 30%
- plant injury at 8000 g/ha ([14]; 8.0 kg/ha): 40%
- pest or weed control at 8000 g/ha ([15]; 8.0 kg/ha): 30%
- pest or weed control at 8000 g/ha ([16]; 8.0 kg/ha): 50%
- pest or weed control at 8000 g/ha ([17]; 8.0 kg/ha): 100%
- plant injury at 8000 g/ha ([18]; 8.0 kg/ha): 90%
- pest or weed control at 8000 g/ha ([19]; 8.0 kg/ha): 20%
- plant injury at 8000 g/ha ([20]; 8.0 kg/ha): 20%
- pest or weed control at 8000 g/ha ([21]; 8.0 kg/ha): 20%
- pest or weed control at 8000 g/ha ([22]; 8.0 kg/ha): 50%

SMILES: CCS(=O)(=O)Nc1cc(-n2nnn(C)c2=O)c(F)cc1Cl [Compound 43, 1-[4-Chloro-2-fluoro-5-(N--ethylsulfonylamino)phenyl]-4,5-dihydro-4-methyl-5H--tetrazol-5-one]
- plant injury at 2000 g/ha ([1]; 2.0 kg/ha): 50%
- pest or weed control at 2000 g/ha ([2]; 2.0 kg/ha): 100%
- plant injury at 2000 g/ha ([5]; 2.0 kg/ha): 50%
- pest or weed control at 2000 g/ha ([8]; 2.0 kg/ha): 100%
- pest or weed control at 2000 g/ha ([10]; 2.0 kg/ha): 70%
- plant injury at 2000 g/ha ([11]; 2.0 kg/ha): 50%
- plant injury at 2000 g/ha ([14]; 2.0 kg/ha): 30%
- pest or weed control at 2000 g/ha ([16]; 2.0 kg/ha): 50%
- pest or weed control at 2000 g/ha ([17]; 2.0 kg/ha): 95%
- plant injury at 2000 g/ha ([18]; 2.0 kg/ha): 100%
- pest or weed control at 2000 g/ha ([22]; 2.0 kg/ha): 40%
